Converted amounts (≈) assume the structure as drawn.
Assays:
Type in all cases: functional
[1] = test system: Streptococcus pneumoniae; experiment: Antibacterial activity against Streptococcus pneumoniae SVI SP-3
[2] = test system: Staphylococcus aureus; experiment: Antibacterial activity against Staphylococcus aureus UC-76 SA-1
[3] = test system: Enterococcus faecalis; experiment: Antibacterial activity against Enterococcus faecalis MGH-2 EF1-1
[4] = test system: Haemophilus influenzae; experiment: Antibacterial activity against Haemophilus influenzae HI3542; details: HI-3542
[5] = test system: Moraxella catarrhalis; experiment: Antibacterial activity against Moraxella catarrhalis BC-3531
[6] = test system: Staphylococcus aureus; experiment: In vivo efficacy in mouse infected with Staphylococcus aureus UC 9213 administered po; details: UC 9213, po

SMILES | MIC [1] [µg/mL] | MIC [2] [µg/mL] | MIC [3] [µg/mL] | MIC [4] [µg/mL] | MIC [5] [µg/mL] | ED50 [6] [mg/kg]
CC(=O)NC[C@H]1CN(c2ccc([C@H]3[C@@H]4CN(C(=O)C(C)(C)O)C[C@@H]43)c(F)c2)C(=O)O1 | 2 (≈ 4.77 µM) | 8 (≈ 19.1 µM) | 4 (≈ 9.54 µM) | 32 (≈ 76.3 µM) | 16 (≈ 38.1 µM) | 
CC(=O)NC[C@H]1CN(c2ccc([C@H]3[C@@H]4CN(c5nn[nH]n5)C[C@@H]43)c(F)c2)C(=O)O1 | 64 (≈ 159 µM) | 64 (≈ 159 µM) | 32 (≈ 79.7 µM) | 64 (≈ 159 µM) | 64 (≈ 159 µM) | 
CC(=O)NC[C@H]1CN(c2ccc([C@H]3[C@@H]4CN(C(=O)C(F)F)C[C@@H]43)c(F)c2)C(=O)O1 | 1 (≈ 2.43 µM) | 4 (≈ 9.72 µM) | 2 (≈ 4.86 µM) | 16 (≈ 38.9 µM) | 8 (≈ 19.4 µM) | 
COC(=O)N1C[C@@H]2[C@H](C1)[C@H]2c1ccc(N2C[C@H](CNC(C)=O)OC2=O)cc1F | 2 (≈ 5.11 µM) | 4 (≈ 10.2 µM) | 4 (≈ 10.2 µM) | 32 (≈ 81.8 µM) | 8 (≈ 20.4 µM) | 
O=C(CO)NC[C@H]1CN(c2ccc([C@H]3[C@@H]4CS(=O)(=O)C[C@@H]43)c(F)c2)C(=O)O1 | 4 (≈ 10 µM) | 8 (≈ 20.1 µM) | 8 (≈ 20.1 µM) | 8 (≈ 20.1 µM) | 8 (≈ 20.1 µM) | 
C/N=C(\NC#N)N1C[C@@H]2[C@H](C1)[C@H]2c1ccc(N2C[C@H](CNC(C)=O)OC2=O)cc1F | 2 (≈ 4.83 µM) | 4 (≈ 9.65 µM) | 4 (≈ 9.65 µM) | 16 (≈ 38.6 µM) | 32 (≈ 77.2 µM) | 
CC(=O)NC[C@H]1CN(c2ccc([C@H]3[C@@H]4CN(C(=N)NC#N)C[C@@H]43)c(F)c2)C(=O)O1 | 1 (≈ 2.5 µM) | 1 (≈ 2.5 µM) | 2 (≈ 4.99 µM) | 8 (≈ 20 µM) | 8 (≈ 20 µM) | 
CCC(=O)NC[C@H]1CN(c2ccc([C@H]3[C@@H]4CS(=O)(=O)C[C@@H]43)c(F)c2)C(=O)O1 | 1 (≈ 2.52 µM) | 4 (≈ 10.1 µM) | 2 (≈ 5.04 µM) | 8 (≈ 20.2 µM) | 8 (≈ 20.2 µM) | 
CC(=O)NC[C@H]1CN(c2ccc([C@H]3[C@@H]4CN(C(=O)CN)C[C@@H]43)c(F)c2)C(=O)O1 | 1 (≈ 2.56 µM) | 16 (≈ 41 µM) | 4 (≈ 10.2 µM) | 16 (≈ 41 µM) | 16 (≈ 41 µM) | 
CCC(=O)NC[C@H]1CN(c2cc(F)c([C@H]3[C@@H]4CS(=O)(=O)C[C@@H]43)c(F)c2)C(=O)O1 | 1 (≈ 2.41 µM) | 2 (≈ 4.83 µM) | 2 (≈ 4.83 µM) | 4 (≈ 9.65 µM) | 4 (≈ 9.65 µM) | 
CC(=O)NC[C@H]1CN(c2cc(F)c([C@H]3[C@@H]4CN(C(=O)CO)C[C@@H]43)c(F)c2)C(=O)O1 | 2 (≈ 4.89 µM) | 4 (≈ 9.77 µM) | 4 (≈ 9.77 µM) | 16 (≈ 39.1 µM) | 8 (≈ 19.5 µM) | 
CC(=O)NC[C@H]1CN(c2ccc([C@H]3[C@@H]4CN(C(=O)CO)C[C@@H]43)cc2)C(=O)O1 | 4 (≈ 10.7 µM) | 4 (≈ 10.7 µM) | 4 (≈ 10.7 µM) | 8 (≈ 21.4 µM) | 4 (≈ 10.7 µM) | 
O=C(NC[C@H]1CN(c2ccc([C@H]3[C@@H]4CS(=O)(=O)C[C@@H]43)c(F)c2)C(=O)O1)C1CC1 | 2 (≈ 4.9 µM) | 4 (≈ 9.79 µM) | 4 (≈ 9.79 µM) | 4 (≈ 9.79 µM) | 4 (≈ 9.79 µM) | 
N#CCC(=O)NC[C@H]1CN(c2ccc([C@H]3[C@@H]4CS(=O)(=O)C[C@@H]43)c(F)c2)C(=O)O1 | 4 (≈ 9.82 µM) | 8 (≈ 19.6 µM) | 8 (≈ 19.6 µM) | 8 (≈ 19.6 µM) | 8 (≈ 19.6 µM) | 
CC(=O)NC[C@H]1CN(c2ccc([C@H]3[C@@H]4CN(C#N)C[C@@H]43)c(F)c2)C(=O)O1 | 1 (≈ 2.79 µM) | 2 (≈ 5.58 µM) | 1 (≈ 2.79 µM) | 8 (≈ 22.3 µM) | 4 (≈ 11.2 µM) | 
CC(=O)NC[C@H]1CN(c2ccc([C@H]3[C@@H]4CN(C(N)=O)C[C@@H]43)c(F)c2)C(=O)O1 | 2 (≈ 5.31 µM) | 2 (≈ 5.31 µM) | 2 (≈ 5.31 µM) | 8 (≈ 21.3 µM) | 8 (≈ 21.3 µM) | 15.3
CC(F)(F)C(=O)NC[C@H]1CN(c2cc(F)c([C@H]3[C@@H]4CS(=O)(=O)C[C@@H]43)c(F)c2)C(=O)O1 | 1 (≈ 2.22 µM) | 4 (≈ 8.88 µM) | 2 (≈ 4.44 µM) | 16 (≈ 35.5 µM) | 8 (≈ 17.8 µM) | 
CC(=O)NC[C@H]1CN(c2ccc([C@H]3[C@@H]4COC[C@@H]43)cc2)C(=O)O1 | 8 (≈ 25.3 µM) | 8 (≈ 25.3 µM) | 16 (≈ 50.6 µM) | 32 (≈ 101 µM) | 8 (≈ 25.3 µM) | 
CC(=O)NC[C@H]1CN(c2ccc([C@H]3[C@@H]4CS(=O)(=O)C[C@@H]43)c(F)c2)C(=O)O1 | 2 (≈ 5.23 µM) | 4 (≈ 10.5 µM) | 4 (≈ 10.5 µM) | 8 (≈ 20.9 µM) | 8 (≈ 20.9 µM) | 4.2
CC(=O)NC[C@H]1CN(c2ccc([C@H]3[C@@H]4CN(C(=O)CO)C[C@@H]43)c(F)c2)C(=O)O1 | 2 (≈ 5.11 µM) | 2 (≈ 5.11 µM) | 2 (≈ 5.11 µM) | 4 (≈ 10.2 µM) | 8 (≈ 20.4 µM) | 2.2

From ChEMBL document CHEMBL1138148, “Conformational constraint in oxazolidinone antibacterials. Part 2: Synthesis and structure-activity studies of oxa-, aza-, and thiabicyclo[3.1.0]hexylphenyl oxazolidinones” (2006)
